Positions of bridges follow the written chain, without caps; N, C: chain ends. Non-standard residues stand in square brackets, D forms with d. Residues, ends and D or L forms follow the SMILES beside them. 2Nal = N[C@@H](Cc1ccc2ccccc2c1)C(=O)O; Dmt = Cc1cc(O)cc(C)c1C[C@H](N)C(=O)O; dOrn = NCCC[C@@H](N)C(=O)O
How the values were obtained:
μ opioid receptors = μ opioid receptors (Cavia porcellus, UniProt P97266); experiment: GPI assay: inhibition of electrically evoked contractions of the guinea pig ileum; type: cell-based; conditions: means of 3-6 determinations ± SEM, normalized to [Leu5]enkephalin standard, read-out: IC50 in the GPI assay (agonist potency)
Method: (§1) a) Bioassays based on inhibition of electrically evoked contractions of the mouse vas deferens (MVD) and of the guinea pig ileum (GPI). In the GPI assay the opioid effect is primarily mediated by μ opioid receptors, whereas in the MVD assay the inhibition of the contractions is mostly due to interaction with δ opioid receptors.
(§2) The GPI and MVD bioassays were carried out as reported in P. W. Schiller et al., Biochem. Biophys. Res. Commun 85, 1332-1338 (1978) and J. Di Maio et al., J. Med. Chem. 25, 1432-1438 (1982). A log dose-response curve was determined with [Leu^5 ] enkephalin as standard for each ileum and vas preparation, and IC50 values of the compounds being tested were normalized according to A. A. Waterfield et al., Eur. J. Pharmacol. 58, 11-18 (1979). Ke values for the cyclic β-casomorphin analogs with mixed μ agonist/δ antagonist properties (δ antagonist effect) were determined from the ratio of IC50 values (DR) obtained in the presence and absence of a fixed antagonist concentration (a) (Ke =a/(DR-1)) H. W. Kosterlitz & A. J. Watt, Br. J. Pharmacol. 33, 266-276 (1968). These determinations were made with the MVD assay, using three different δ-selective agonists ([Leu^5 ]enkephalin, DPDPE and [D-Ala^2]deltorphin I].

δ opioid receptors = target: T1, δ opioid receptors (Mus musculus, UniProt P32300); experiment: MVD assay: inhibition of electrically evoked contractions of the mouse vas deferens (δ antagonist Ke); type: cell-based; conditions: means of 3-8 determinations ± SEM; for Ke in the MVD assay, antagonist potency against DPDPE: δ agonist DPDPE; for Ke in the MVD assay, antagonist potency against [D-Ala2]deltorphin I: δ agonist [D-Ala2]deltorphin I; for Ke in the MVD assay, antagonist potency against [Leu5]enkephalin: δ agonist [Leu5]enkephalin
T1 construct: Bioassays Using Isolated Organ Preparations; from tissue; host or cells: isolated mouse vas deferens
Method: as §1, §2

μ opioid receptor = target: T2, μ opioid receptor (Rattus norvegicus, UniProt P33535); experiment: μ opioid receptor binding, displacement of [3H]DAMGO from rat brain membranes; conditions: [3H]DAMGO 0.7 nM, Cheng-Prusoff, means of three determinations ± SEM
T2 construct: from tissue; host or cells: rat brain membranes (cerebellum removed), Sprague-Dawley
Text: (§3) In the case of κ-ligands guinea pig brain homogenates were used, since the relative proportion of κ-binding sites is higher in guinea pig brain than in rat brain. The experimental procedure being used in our laboratory represents a modified version of the binding assay described by Paternak et al. (Mol. Pharmacol. 11 340-351, (1975)). Male Sprague-Dawley rats (300-350 g) from the Canadian Breeding Laboratories were decapitated and after removal of the cerebellum the brains were homogenized in 30 volumes of ice-cold standard buffer (50 mM Tris-HCl, pH 7.7). After centrifugation at 30,000×g for 30 min at 4° C. the membranes were reconstituted in the original volume of standard buffer and incubated for 30 min at 37° C. (to release bound endogenous ligands). […] The incubation was terminated by filtration through Whatman GF/B filters under vacuum at 4° C. Following two washings with 5 ml portions of ice-cold standard buffer the filters were transferred to scintillation vials and treated with 1 ml Protosol (New England Nuclear) for 30 min prior to the addition of 0.5 ml acetic acid and 10 ml Aquasol (New England Nuclear). After shaking for 30 min the vials were counted at an efficiency of 40-45%. All experiments were performed in duplicates and repeated at least three times. Specific binding of each of the three radioglands was defmed by performing incubations in the presence of cold DAMGO, DSLET and U69,563, respectively, at a concentration of 1 micromolar. Values of half-maximal inhibition (IC50) of specific binding were obtained graphically from semilogarithmic plots. From the measured IC50-values, binding inhibition constants (Ki) were then calculated based on Cheng and Prussoff's equation (Biochem. Pharmacol. 22, 3099-3102 (1973)). Ratios of the Ki -values in the μ-, δ- and κ-representative bindning assays are a measure of the receptor selectivity of the compound under investigation (e.g. Ki^δ/ Ki^μ indicated the selectivity for μ-receptors versus δ-receptors).

δ opioid receptor = target: T3, δ opioid receptor (Rattus norvegicus, UniProt P33533); experiment: δ opioid receptor binding, displacement of δ-selective radioligand from rat brain membranes; conditions: for Ki^δ/Ki^μ (selectivity for μ versus δ receptors): ratio of binding constants; for Ki: δ-selective radioligand 1.0 nM, Cheng-Prusoff, means of three determinations ± SEM
T3 construct: from tissue; host or cells: rat brain membranes (cerebellum removed), Sprague-Dawley
Text: as §3

T2 sequence (P33535 whole entry): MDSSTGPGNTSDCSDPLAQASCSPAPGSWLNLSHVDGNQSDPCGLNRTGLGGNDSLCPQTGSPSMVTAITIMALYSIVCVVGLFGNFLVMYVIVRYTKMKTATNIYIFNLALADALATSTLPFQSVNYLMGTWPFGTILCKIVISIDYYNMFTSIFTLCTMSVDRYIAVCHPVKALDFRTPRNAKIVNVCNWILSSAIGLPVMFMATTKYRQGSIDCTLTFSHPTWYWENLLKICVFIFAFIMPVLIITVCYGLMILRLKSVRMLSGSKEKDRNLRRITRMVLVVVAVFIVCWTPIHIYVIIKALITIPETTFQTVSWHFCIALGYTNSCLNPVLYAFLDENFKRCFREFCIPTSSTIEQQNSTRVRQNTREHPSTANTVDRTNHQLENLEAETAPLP
T3 sequence (P33533 whole entry): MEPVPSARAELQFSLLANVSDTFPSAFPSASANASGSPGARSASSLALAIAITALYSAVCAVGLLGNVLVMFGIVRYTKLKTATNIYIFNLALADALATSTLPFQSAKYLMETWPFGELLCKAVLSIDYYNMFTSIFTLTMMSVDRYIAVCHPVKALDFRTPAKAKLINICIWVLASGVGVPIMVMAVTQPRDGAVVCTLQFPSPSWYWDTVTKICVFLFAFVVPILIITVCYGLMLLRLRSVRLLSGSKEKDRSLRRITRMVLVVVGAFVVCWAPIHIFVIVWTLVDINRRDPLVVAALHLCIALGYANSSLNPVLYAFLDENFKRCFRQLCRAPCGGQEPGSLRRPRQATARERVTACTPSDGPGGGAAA
T1 sequence (P32300 whole entry): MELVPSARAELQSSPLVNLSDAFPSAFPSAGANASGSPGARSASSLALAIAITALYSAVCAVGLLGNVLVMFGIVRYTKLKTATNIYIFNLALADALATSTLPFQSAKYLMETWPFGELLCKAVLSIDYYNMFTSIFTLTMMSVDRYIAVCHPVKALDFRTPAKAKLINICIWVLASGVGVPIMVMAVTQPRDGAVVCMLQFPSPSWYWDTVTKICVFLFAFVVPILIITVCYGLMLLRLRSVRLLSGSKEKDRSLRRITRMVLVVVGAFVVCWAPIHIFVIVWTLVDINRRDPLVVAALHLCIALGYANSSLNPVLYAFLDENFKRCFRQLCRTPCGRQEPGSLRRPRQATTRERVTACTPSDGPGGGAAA
μ opioid receptors, sequence (P97266 whole entry, looked up): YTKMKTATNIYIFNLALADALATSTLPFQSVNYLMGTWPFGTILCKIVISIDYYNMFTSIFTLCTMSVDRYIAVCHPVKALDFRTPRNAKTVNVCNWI

| Structure (SMILES) | IC50 (μ opioid receptors) [nM] | Ke in the MVD assay, antagonist potency against DPDPE (δ opioid receptors) | Ke in the MVD assay, antagonist potency against [D-Ala2]deltorphin I (δ opioid receptors) | Ke in the MVD assay, antagonist potency against [Leu5]enkephalin (δ opioid receptors) | Ki (μ opioid receptor) [nM] | Ki^δ/Ki^μ (selectivity for μ versus δ receptors) (δ opioid receptor) | Ki (δ opioid receptor) [nM] |
| --- | --- | --- | --- | --- | --- | --- | --- |
| N[C@@H](Cc1ccc(O)cc1)C(=O)N[C@@H]1CCCNC(=O)CNC(=O)[C@H]2CCCN2C(=O)[C@H](Cc2ccc3ccccc3c2)NC1=O [H-Tyr-c[-D-Orn-2-Nal-D-Pro-Gly-], reference compound] (HELM PEPTIDE1{Y.[O=C([C@@H](CCCN[*:3])N[*:1])[*:2]].[O=C([C@H](Cc1ccc2ccccc2c1)N[*:1])[*:2]].[dP].G}$PEPTIDE1,PEPTIDE1,2:R3-5:R2$$$V2.0) | 384 | 233 ± 28 | 202 ± 24 | 268 ± 22 | 5.89 ± 1.6 | 2.92 | 17.2 ± 4.9 |
| CC[C@@H](C)[C@H]1NC(=O)[C@H]2CCCN2C(=O)[C@H](Cc2ccc3ccccc3c2)NC(=O)[C@H](NC(=O)[C@@H](N)Cc2ccc(O)cc2)CCCNC1=O [Example 9, H-Tyr-c[-D-Orn-2-Nal-D-Pro-D-Ile-]] (HELM PEPTIDE1{Y.[O=C([C@@H](CCCN[*:3])N[*:1])[*:2]].[O=C([C@H](Cc1ccc2ccccc2c1)N[*:1])[*:2]].[dP].[dI]}$PEPTIDE1,PEPTIDE1,2:R3-5:R2$$$V2.0) | 815 | 4.88 ± 0.94 | 7.63 ± 1.48 | – | – | – | – |
| CN[C@@H](Cc1ccc(O)cc1)C(=O)N[C@@H]1CCCNC(=O)CNC(=O)[C@H]2CCCN2C(=O)[C@H](Cc2ccc3ccccc3c2)NC1=O [Example 1, Tyr(NMe)-c[-D-Orn-2-Nal-D-Pro-Gly-]] (HELM PEPTIDE1{[meY].[O=C([C@@H](CCCN[*:3])N[*:1])[*:2]].[O=C([C@H](Cc1ccc2ccccc2c1)N[*:1])[*:2]].[dP].G}$PEPTIDE1,PEPTIDE1,2:R3-5:R2$$$V2.0) | 92.5 | 45.9 ± 2.8 | 38.8 ± 5.9 | 30.8 ± 1.5 | 1.7 ± 0.15 | 0.765 | 1.3 ± 0.19 |
| N[C@@H](Cc1ccc(O)cc1)C(=O)N[C@@H]1CCCCNC(=O)CNC(=O)[C@H]2CCCN2C(=O)[C@H](Cc2ccc3ccccc3c2)NC1=O [H-Tyr-c[-D-Lys-2-Nal-D-Pro-Gly-], reference compound] (HELM PEPTIDE1{Y.[dK].[O=C([C@H](Cc1ccc2ccccc2c1)N[*:1])[*:2]].[dP].G}$PEPTIDE1,PEPTIDE1,2:R3-5:R2$$$V2.0) | 609 | 305 ± 52 | 305 ± 52 | 603 ± 174 | 17.1 ± 2.6 | 3.66 | 62.6 ± 13.2 |
| Cc1cc(O)cc(C)c1C[C@H](N)C(=O)N[C@@H]1CCCNC(=O)CNC(=O)[C@H]2CCCN2C(=O)[C@H](Cc2ccc3ccccc3c2)NC1=O [Example 3, H-Dmt-c[-D-Orn-2-Nal-D-Pro-Gly-]] (H-[Dmt][dOrn][2Nal][dP]G; lactam 2-C) | 7.88 | 2.13 ± 0.51 | 3.37 ± 0.59 | 3.74 ± 1.00 | 0.46 ± 0.022 | 0.993 | 0.457 ± 0.022 |
| C[C@H]1NC(=O)[C@H]2CCCN2C(=O)[C@H](Cc2ccc3ccccc3c2)NC(=O)[C@H](NC(=O)[C@@H](N)Cc2ccc(O)cc2)CCCNC1=O [Example 5, H-Tyr-c[-D-Orn-2-Nal-D-Pro-D-Ala-]] (HELM PEPTIDE1{Y.[O=C([C@@H](CCCN[*:3])N[*:1])[*:2]].[O=C([C@H](Cc1ccc2ccccc2c1)N[*:1])[*:2]].[dP].[dA]}$PEPTIDE1,PEPTIDE1,2:R3-5:R2$$$V2.0) | 600 | 5.35 ± 0.42 | 5.99 ± 1.30 | – | 72 ± 22 | 0.0105 | 0.755 ± 0.125 |

Source: patent publication US5786447A, “Opioid peptide analogs” (Astra AB, priority 1994, dated 1998)
